Reference: patent US11168073B2, “3,3-difluoroallylamines or salts thereof and pharmaceutical compositions comprising the same” (YUHAN CORPORATION, priority 2018, dated 2021)
Where a name gives a salt, the structure may show the parent alone.

Assays:
Format in all cases: biochemical
[1] = target: T1, recombinant human VAP-1 (Homo sapiens, UniProt Q16853); assay: Activity evaluation on recombinant human VAP-1 (Amplex Red/HRP-coupled hydrogen peroxide assay, benzylamine substrate); details: recombinant human VAP-1; 30 min preincubation at 37° C.; 1 mM benzylamine; read-out: Inhibitory Activity (IC50, nM) human VAP-1
T1 construct: purchased R&D systems
T1 sequence (Q16853 1-763): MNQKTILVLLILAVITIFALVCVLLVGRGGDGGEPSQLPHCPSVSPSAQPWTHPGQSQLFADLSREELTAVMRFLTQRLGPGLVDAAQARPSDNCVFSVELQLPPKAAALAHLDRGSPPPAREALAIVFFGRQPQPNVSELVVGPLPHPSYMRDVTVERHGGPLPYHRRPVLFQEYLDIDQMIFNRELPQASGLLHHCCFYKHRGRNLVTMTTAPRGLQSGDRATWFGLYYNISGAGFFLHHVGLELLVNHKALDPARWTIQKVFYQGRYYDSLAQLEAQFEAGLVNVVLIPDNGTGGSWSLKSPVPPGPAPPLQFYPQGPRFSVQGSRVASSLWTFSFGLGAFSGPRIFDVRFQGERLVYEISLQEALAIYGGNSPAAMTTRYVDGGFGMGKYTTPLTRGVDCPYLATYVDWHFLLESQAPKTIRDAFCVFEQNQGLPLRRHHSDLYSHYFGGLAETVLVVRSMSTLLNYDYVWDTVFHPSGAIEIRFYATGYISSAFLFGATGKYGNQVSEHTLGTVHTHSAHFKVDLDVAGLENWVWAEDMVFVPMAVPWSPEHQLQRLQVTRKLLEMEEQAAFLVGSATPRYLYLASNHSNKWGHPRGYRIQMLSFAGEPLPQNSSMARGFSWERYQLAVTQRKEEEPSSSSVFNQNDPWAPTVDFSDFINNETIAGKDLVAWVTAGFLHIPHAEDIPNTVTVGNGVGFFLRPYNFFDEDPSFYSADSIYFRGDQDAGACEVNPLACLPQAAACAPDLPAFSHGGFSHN
Summary of the method: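 Hydrogen peroxide from benzylamine (1 mM) oxidation by human recombinant VAP-1 detected via HRP-coupled Amplex Red (200 uM) fluorescence, kinetic over 1–2 h. Enzyme and compound preincubated 30 min at 37 °C, pH 7.4 phosphate; 8-point dose response, signal-rate decrease versus DMSO control fitted to four-parameter logistic for IC50.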

[2] = target: T2, recombinant human MAO-A (monoamine oxidase-A) (Homo sapiens, UniProt P21397); assay: Activity evaluation on recombinant human MAO-A (Amplex Red/HRP-coupled assay, 0.5 mM tyramine substrate); details: 0.5 mM tyramine, read-out: Inhibitory Activity (IC50, nM) MAO-A
T2 construct: purchased Sigma-Aldrich
T2 sequence (P21397 1-527): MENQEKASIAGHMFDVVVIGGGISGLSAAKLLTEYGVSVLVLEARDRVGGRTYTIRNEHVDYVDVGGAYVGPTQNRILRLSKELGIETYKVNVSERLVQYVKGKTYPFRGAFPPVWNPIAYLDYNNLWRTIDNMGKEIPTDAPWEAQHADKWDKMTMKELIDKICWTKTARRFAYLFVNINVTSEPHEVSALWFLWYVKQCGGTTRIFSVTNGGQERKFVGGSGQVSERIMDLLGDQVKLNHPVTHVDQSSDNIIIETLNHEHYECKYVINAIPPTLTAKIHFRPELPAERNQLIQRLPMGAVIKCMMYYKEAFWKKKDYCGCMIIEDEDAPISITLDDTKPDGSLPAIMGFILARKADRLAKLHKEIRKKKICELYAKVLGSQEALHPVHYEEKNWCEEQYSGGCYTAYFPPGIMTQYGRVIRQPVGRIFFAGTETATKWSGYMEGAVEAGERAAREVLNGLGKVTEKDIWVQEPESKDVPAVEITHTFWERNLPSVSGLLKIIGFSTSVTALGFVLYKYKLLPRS
Summary of the method: (§1)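 Each oxidase is tested with its own substrate: MAO-A with 0.5 mM tyramine, MAO-B with 1 mM benzylamine, DAO with 1 mM putrescine. After 30 min enzyme-compound preincubation at 37 °C, Amplex Red (200 uM) plus HRP (1 U/mL) reports H2O2 as fluorescence; IC50 is fitted from eight-point curves.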

[3] = target: T3, recombinant human MAO-B (monoamine oxidase-B) (Homo sapiens, UniProt P27338); assay: Activity evaluation on recombinant human MAO-B (Amplex Red/HRP-coupled assay, 1 mM benzylamine substrate); details: 1 mM benzylamine, read-out: Inhibitory Activity (IC50, nM) MAO-B
T3 construct: purchased Sigma-Aldrich
T3 sequence (P27338 1-520): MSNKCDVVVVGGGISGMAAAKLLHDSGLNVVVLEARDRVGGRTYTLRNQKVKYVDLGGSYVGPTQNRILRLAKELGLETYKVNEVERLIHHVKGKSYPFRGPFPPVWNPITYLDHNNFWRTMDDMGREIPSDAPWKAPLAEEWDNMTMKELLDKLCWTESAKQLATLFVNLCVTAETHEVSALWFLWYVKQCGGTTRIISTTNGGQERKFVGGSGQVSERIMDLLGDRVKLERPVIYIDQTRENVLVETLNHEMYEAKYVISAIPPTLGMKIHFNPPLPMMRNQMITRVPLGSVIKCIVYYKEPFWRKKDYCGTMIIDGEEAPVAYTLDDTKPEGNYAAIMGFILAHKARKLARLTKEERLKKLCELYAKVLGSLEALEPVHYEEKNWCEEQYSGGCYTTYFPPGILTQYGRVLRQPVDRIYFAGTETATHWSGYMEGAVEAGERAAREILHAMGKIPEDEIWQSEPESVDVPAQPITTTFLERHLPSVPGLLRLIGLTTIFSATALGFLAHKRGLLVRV
Summary of the method: as §1

[4] = target: T4, recombinant human DAO (diamine oxidase) (Homo sapiens, UniProt P19801); assay: Activity evaluation on recombinant human DAO (Amplex Red/HRP-coupled assay, 1 mM putrescine substrate); details: 1 mM putrescine, read-out: Inhibitory Activity (IC50, nM) DAO
T4 construct: purchased R&D systems
T4 sequence (P19801 20-751): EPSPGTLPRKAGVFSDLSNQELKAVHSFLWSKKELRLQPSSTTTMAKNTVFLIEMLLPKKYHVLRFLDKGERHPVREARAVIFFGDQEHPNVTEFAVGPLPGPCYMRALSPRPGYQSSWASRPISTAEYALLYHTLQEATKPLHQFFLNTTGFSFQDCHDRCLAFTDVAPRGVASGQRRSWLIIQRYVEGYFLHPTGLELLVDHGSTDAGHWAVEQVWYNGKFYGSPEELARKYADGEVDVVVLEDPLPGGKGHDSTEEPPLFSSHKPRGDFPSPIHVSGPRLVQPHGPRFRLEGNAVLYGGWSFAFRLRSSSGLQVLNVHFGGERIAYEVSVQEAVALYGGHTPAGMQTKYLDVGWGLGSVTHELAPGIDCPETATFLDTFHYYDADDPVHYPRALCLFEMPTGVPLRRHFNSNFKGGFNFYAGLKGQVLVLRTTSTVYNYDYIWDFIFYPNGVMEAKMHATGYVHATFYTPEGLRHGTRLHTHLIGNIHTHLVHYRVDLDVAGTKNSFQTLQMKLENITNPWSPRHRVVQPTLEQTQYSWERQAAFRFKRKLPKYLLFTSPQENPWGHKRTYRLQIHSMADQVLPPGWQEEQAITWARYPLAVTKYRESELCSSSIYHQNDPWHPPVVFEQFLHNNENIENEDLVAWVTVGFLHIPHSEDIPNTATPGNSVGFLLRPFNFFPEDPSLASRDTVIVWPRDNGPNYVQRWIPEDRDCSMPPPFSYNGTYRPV
Summary of the method: as §1

Structure (SMILES)	IC50 [1]	IC50 [2]	IC50 [3]	IC50 [4]
NCC(Cn1ncn(Cc2ccc(-c3ccc4c(c3)NC(=O)OC4)s2)c1=O)=C(F)F [Example 142, 7-[5-[[1-[2-(aminomethyl)-3,3-difluoro-allyl]-5-oxo-1,2,4-triazol-4-yl]methyl]-2-thienyl]-1,4-dihydro-3,1-benzoxazin-2-one Trifluoroacetate]	0.2 nM	> 100000 nM	32000 nM	16000 nM
NCC(Cn1ncn(Cc2ccc(-c3ccc4c(c3)COC(=O)N4)s2)c1=O)=C(F)F [Example 143, 6-[5-[[1-[2-(aminomethyl)-3,3-difluoro-allyl]-5-oxo-1,2,4-triazol-4-yl]methyl]-2-thienyl]-1,4-dihydro-3,1-benzoxazin-2-one Trifluoroacetate]	0.2 nM	> 100000 nM	6400 nM	> 10000 nM
CN1C(=O)COc2cc(-c3ccc(Cn4cnn(CC(CN)=C(F)F)c4=O)s3)ccc21 [Example 144, 7-[5-[[1-[2-(aminomethyl)-3,3-difluoro-allyl]-5-oxo-1,2,4-triazol-4-yl]methyl]-2-thienyl]-4-methyl-1,4-benzoxazin-3-one Trifluoroacetate]	0.7 nM	> 100000 nM	> 100000 nM	> 10000 nM
NCC(Cn1ncn(Cc2ccc(-c3cnc4c(c3)CCCN4)s2)c1=O)=C(F)F [Example 145, 2-[2-(aminomethyl)-3,3-difluoro-allyl]-4-[[5-(5,6,7,8-tetrahydro-1,8-naphthyridin-3-yl)-2-thienyl]methyl]-1,2,4-triazol-3-one Ditrifluoroacetate]	0.8 nM	> 100000 nM	> 100000 nM	> 100000 nM
CS(=O)(=O)c1ccc(-c2csc(Cn3cnn(CC(CN)=C(F)F)c3=O)c2)cc1 [Example 146, 2-[2-(aminomethyl)-3,3-difluoro-allyl]-4-[[4-(4-methylsulfonylphenyl)-2-thienyl]methyl]-1,2,4-triazol-3-one Trifluoroacetate]	1.1 nM	> 100000 nM	33000 nM	9200 nM
NCC(Cn1ncn(Cc2cc(-c3ccc(N4CCNCC4)cc3)cs2)c1=O)=C(F)F [Example 147, 2-[2-(aminomethyl)-3,3-difluoro-allyl]-4-[[4-(4-piperazin-1-ylphenyl)-2-thienyl]methyl]-1,2,4-triazol-3-one Ditrifluoroacetate]	11 nM	> 100000 nM	> 100000 nM	2600 nM
NCC(Cn1ncn(Cc2cc(-c3ccc(C(F)(F)F)nc3)cs2)c1=O)=C(F)F [Example 148, 2-[2-(aminomethyl)-3,3-difluoro-allyl]-4-[[4-[6-(trifluoromethyl)-3-pyridyl]-2-thienyl]methyl]-1,2,4-triazol-3-one Trifluoroacetate]	0.7 nM	> 100000 nM	8700 nM	6300 nM
CN(C)c1ccc(-c2csc(Cn3cnn(CC(CN)=C(F)F)c3=O)c2)cn1 [Example 149, 2-[2-(aminomethyl)-3,3-difluoro-allyl]-4-[[4-[6-(dimethylamino)-3-pyridyl]-2-thienyl]methyl]-1,2,4-triazol-3-one Trifluoroacetate]	0.6 nM	> 100000 nM	> 100000 nM	> 10000 nM
NCC(Cn1ncn(Cc2cc(-c3ccc4c(c3)OCO4)cs2)c1=O)=C(F)F [Example 150, 2-[2-(aminomethyl)-3,3-difluoro-allyl]-4-[[4-(1,3-benzodioxol-5-yl)-2-thienyl]methyl]-1,2,4-triazol-3-one Trifluoroacetate]	2.9 nM	> 100000 nM	2800 nM	> 10000 nM
Cc1cc(-c2csc(Cn3cnn(CC(CN)=C(F)F)c3=O)c2)cc2c1NC(=O)CC2 [Example 151, 6-[5-[[1-[2-(aminomethyl)-3,3-difluoro-allyl]-5-oxo-1,2,4-triazol-4-yl]methyl]-3-thienyl]-8-methyl-3,4-dihydro-1H-quinolin-2-one Trifluoroacetate]	0.3 nM	> 100000 nM	26100 nM	6600 nM
CN1C(=O)CCc2cc(-c3csc(Cn4cnn(CC(CN)=C(F)F)c4=O)c3)ccc21 [Example 152, 6-[5-[[1-[2-(aminomethyl)-3,3-difluoro-allyl]-5-oxo-1,2,4-triazol-4-yl]methyl]-3-thienyl]-1-methyl-3,4-dihydroquinolin-2-one Trifluoroacetate]	0.2 nM	> 100000 nM	13400 nM	3500 nM
CCn1cc(-c2csc(Cn3cnn(CC(CN)=C(F)F)c3=O)c2)cn1 [Example 153, 2-[2-(aminomethyl)-3,3-difluoro-allyl]-4-[[4-(1-ethylpyrazol-4-yl)-2-thienyl]methyl]-1,2,4-triazol-3-one Trifluoroacetate]	1.3 nM	> 100000 nM	29000 nM	36000 nM
Cc1cc(-c2ccc(S(C)(=O)=O)cc2)sc1Cn1cnn(CC(CN)=C(F)F)c1=O [Example 154, 2-[2-(aminomethyl)-3,3-difluoro-allyl]-4-[[3-methyl-5-(4-methylsulfonylphenyl)-2-thienyl]methyl]-1,2,4-triazol-3-one Trifluoroacetate]	4 nM	> 100000 nM	> 100000 nM	21000 nM
